Where “and” joins values, the source holds several entries; their conditions need not be identical. Equal values may be shown once.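 Cells were grown in 96-well plates and exposed to each compound for 48 hours at five concentrations; endpoints were interpolated linearly between bracketing concentrations, or set to the highest concentration if not reached. GI50 marks 50% less growth. TGI denotes the concentration required for complete inhibition of growth.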
Legend:
Assay in all cases: DTP human tumour cell line panel, 48 h
OVCAR-4 ovarian = tested on: OVCAR-4 ovarian
SK-MEL-2 melanoma = tested on: SK-MEL-2 melanoma
KM12 colon = tested on: KM12 colon
PC-3 prostate = tested on: PC-3 prostate
U251 CNS = tested on: U251 CNS
LOX IMVI melanoma = tested on: LOX IMVI melanoma
SNB-75 CNS = tested on: SNB-75 CNS
T-47D breast = tested on: T-47D breast
SF-295 CNS = tested on: SF-295 CNS
SF-539 CNS = tested on: SF-539 CNS

| SMILES | GI50 (OVCAR-4 ovarian) | TGI (OVCAR-4 ovarian) | GI50 (SK-MEL-2 melanoma) | TGI (SK-MEL-2 melanoma) [µM] | GI50 (KM12 colon) | TGI (KM12 colon) | GI50 (PC-3 prostate) | TGI (PC-3 prostate) [µM] | GI50 (U251 CNS) | TGI (U251 CNS) | GI50 (LOX IMVI melanoma) | TGI (LOX IMVI melanoma) | GI50 (SNB-75 CNS) | TGI (SNB-75 CNS) | GI50 (T-47D breast) | TGI (T-47D breast) | GI50 (SF-295 CNS) | TGI (SF-295 CNS) | GI50 (SF-539 CNS) | TGI (SF-539 CNS) |
| --- | --- | --- | --- | --- | --- | --- | --- | --- | --- | --- | --- | --- | --- | --- | --- | --- | --- | --- | --- | --- |
| O=C1CC[C@H](N2Cc3c(OCc4ccc(CN5CCOCC5)cc4)cccc3C2=O)C(=O)N1 | > 100 µM | > 100 µM | > 100 µM | > 100 | > 100 µM | > 100 µM | > 100 µM | > 100 | > 100 µM | > 100 µM | > 100 µM | > 100 µM | > 100 µM | > 100 µM | > 100 µM | > 100 µM | > 100 µM | > 100 µM | > 100 µM | > 100 µM |
| COCCOCCOCc1n(Cc2ccc3ccccc3c2)c2ccccc2[n+]1Cc1ccc2ccccc2c1 | 0.231 µM | 1.19 µM | 0.313 µM | 0.941 | 0.352 µM | 1.29 µM | 0.344 µM | 1.59 | 0.352 µM | 1.48 µM | 0.419 µM | 1.67 µM | 0.236 µM | 1.31 µM | 0.216 µM | 1.12 µM | 0.691 µM | 2.16 µM | 0.587 µM | 2.01 µM |
| CN1CCN(c2ccc(OC(F)(F)F)c(Nc3ncc4c(n3)-c3c(c(C(N)=O)nn3CCO)CC4)c2)CC1 | 6.92 µM and 1.39 µM | 41.2 µM and > 10 µM | 0.0543 µM | > 10 | 0.0328 µM and 0.0354 µM | 35.4 µM and > 10 µM | 0.0663 µM and 0.0986 µM | > 82.4 | 0.052 µM and 0.0628 µM | 21.7 µM and > 10 µM | 0.0372 µM and 0.0519 µM | 16.1 µM and > 3.87 µM | 0.0582 µM and 0.145 µM | 11.7 µM and 1.49 µM | 0.944 µM and 0.538 µM | 40.8 µM and > 10 µM | 0.0575 µM and 0.244 µM | 18.6 µM and > 10 µM | 0.0363 µM and 0.0682 µM | 12.4 µM and > 4.8 µM |
| Cc1ccc(C(=O)NCCCOc2ccc(N3C(N)=NC(N)=NC3(C)C)cc2Cl)cc1S(=O)(=O)F | 81.2 µM | > 100 µM | > 100 µM | > 100 | 39 µM | > 100 µM | 5.9 µM | > 100 | 7.72 µM | > 100 µM | 5.05 µM | > 100 µM | 13.4 µM | > 100 µM | > 100 µM | > 100 µM | > 100 µM | > 100 µM | 8.1 µM | > 100 µM |
| Cc1ccc(S(=O)(=O)OCC#CCOS(=O)(=O)c2ccc(C)cc2)cc1 | 4.81 µM | 13.6 µM | 3.07 µM | 9.66 | 2.08 µM | 4.6 µM | 1.79 µM | 3.6 | 1.69 µM | 3.22 µM | 1.15 µM | 2.56 µM | 1.76 µM | 4.38 µM | 1.94 µM | 4.26 µM | 1.74 µM | 3.62 µM | 2.5 µM | 7.01 µM |
| CCOC(=O)Nc1nc2ccccc2[nH]1 | 28.8 µM and 60.6 µM | > 100 µM | 3.44 µM and 4.49 µM | > 100 | 5.16 µM and 2.96 µM | > 100 µM | 6.6 µM and 4.07 µM | > 100 | 5.2 µM and 4.48 µM | > 100 µM | 7.1 µM and 6.82 µM | > 100 µM | 3.01 µM and 2.61 µM | > 100 µM | 5.76 µM and 4.62 µM | > 100 µM | 4.32 µM and 5.57 µM | > 100 µM | 2.63 µM and 2.92 µM | 9.69 µM and > 32.1 µM |

Reference: PubChem BioAssay (NCI)
